Measured values taken from patent US7632819B1, “Methods and compositions for inhibiting PKC delta cleavage for treatment and prevention of neurodegeneration and apoptosis” (Iowa State University Research Foundation, Inc., priority 2004, dated 2009).
Like-named read-outs stand apart in the source and are kept apart here. Where a SMILES comes first, the peptide text is derived from it. The star is where a group is joined. Cbz = O=C(OCc1ccccc1)*; CH2F = FC*

System: N27 cells
Conditions: for potency in attenuating apoptosis compared with caspase-3 inhibitor DEVD-FMK, in words: 6-OHDA model
Method: […] Z is the abbreviation for N-benzyloxycarbonyl. Untreated cells were used as control samples. After the treatment, the cells were collected by trypsinization (Trypsin 0.25%, 1 mM EDTA), centrifuged at 200×g for 5 min, washed with PBS twice, then lysed. The lysate was used for DNA fragmentation assay.
DNA fragmentation assays were performed using a recently developed Cell Death Detection ELISA Plus Assay Kit. This is a fast, highly sensitive and reliable assay for the detection of early changes in apoptotic cell death. After treatments, 20 μl of cell lysate was processed according to the manufacturer's protocol. The assay solution consisted of a mixture of anti-histone biotin and anti-DNA-HRP directed against various histones and antibodies to both single stranded DNA and double stranded DNA, the major constituents of nucleosomes. After 2 hr incubation, unbound components were removed by washing with the incubation buffer supplied with the kit. Quantification of the nucleosomes retained by anti-DNA-HRP in the immunocomplex was determined spectrophotometrically with ABTS (2,2′-azino-di[3-ethoxybenzyl thiazoline sulfonate) as a HRP substrate (supplied with the kit). Measurements were made at 405 nm against an ABTS solution as a blank (reference wave length 490 nm).
Chemicals. Protease cocktail, ATP, protein-A-sepharose, protein-G-sepharose and anti-â-actin antibody were obtained from Sigma-Aldrich (St. Louis, Mo.); mouse tyrosine hydroxylase antibody was purchased from Chemicon (Temecula, Calif.); the rabbit polyclonal antibody for tyrosine hydroxylase was obtained from Calbiochem Bioscience, Inc. (King of Prussia, Pa.); rabbit PKCδ antibody was purchased from Santa Cruz Biotechnology, Inc. (Santa Cruz, Calif.); anti-rabbit and anti-mouse secondary antibodies and the ECL chemiluminescence kit were purchased from Amersham Pharmacia Biotech. (Piscataway, N.J.). Alexa 488 conjugated antirabbit/mouse, Cy3 conjugated anti-rabbit/mouse antibody and Hoechst 33342 were purchased from Molecular Probes, Inc. (Eugene, Oreg.). [ã-32P]ATP was purchased from Perkin Elmer Life Science Products (Boston, Mass.). The Bradford protein assay kit was purchased from Bio-Rad Laboratories (Hercules, Calif.). RPMI, fetal bovine serum, -glutamine, penicillin, and streptomycin were purchased from Invitrogen (Gaithersburg, Md.). Quantity One 4.2.0 software was purchased from Bio-Rad. Design and synthesis of z-DIPD-fmk (SEQ ID NO:5). To develop a cell permeable peptide inhibitor to specifically block PKCδ cleavage, we designed the tetrapeptide Asp-Ile-Pro-Asp (DIPD) (SEQ ID NO:5) corresponding to position 324-327 in rat PKCδ cDNA representing the caspase-3 cleavage site. Since this peptide is directed against the caspase-3 cleavage site of PKCδ, it should prevent the proteolytic cleavage and activation of PKCδ mediated by caspase-3. The custom synthesis of the tetrapeptide Z-Asp(OMe)-Ile-Pro-Asp(OMe)-FMK (SEQ ID NO:5) was performed at MP Biomedicals (Irvine, Calif.), a quality company that specializes in developing cell permeable peptide inhibitors directed against apoptosis cell signaling molecules. Briefly, the synthesis was performed with the reaction of Boc-D(OMe)-OH with MBFM (Magnesium benzyl fluoromalonate) to produce Beta-Keto fluoroester, followed by hydrogenation with Pd/c to produce Boc-D(OMe)FK, which was converted into Tfa salt using trifluoroacetic acid. Coupling of Tfa salt with Z-D(OMe)—I—P—OH in DMF with HOBT, HBTU DIEA and workup produced a crude product which was purified by column chromatography over silica gel. Elution with EtOAC:MeOH 95:5 gave pure fractions which were mixed and dried. Crystallization with EtOAC/Hexane, filtration and drying produced the pure product. Animals.

## CC[C@H](C)[C@H](NC(=O)[C@H](CC(=O)OC)NC(=O)OCc1ccccc1)C(=O)N1CCC[C@H]1C(=O)N[C@@H](CC(=O)OC)C(=O)CF [z-DIPD-fmk, Z-Asp(OMe)-Ile-Pro-Asp(OMe)-FMK] (Cbz-D(OMe)IPD(OMe)-CH2F)
100 μM 6-OHDA 24 hr, concentration not stated or dose-response 1-50 μM, listed as N-benzyloxycarbonyl-Asp(OMe)-Ile-Pro-Asp(OMe)-FMK
  effect on 6-OHDA-induced DNA fragmentation / apoptotic cell death: effectively blocked
100 μM 6-OHDA 24 hr, inhibitor 50 μM
  effect on 6-OHDA-induced DNA fragmentation: completely blocked
300 μM MPP+ 36 hr, inhibitor 50 μM
  effect on MPP+-induced DNA fragmentation: significantly attenuated
  potency in attenuating apoptosis compared with caspase-3 inhibitor DEVD-FMK, in words: much more potent
Listed as N-benzyloxycarbonyl-Asp(OMe)-Ile-Pro-Asp(OMe)-FMK
  potency in attenuating apoptosis compared with caspase-3 inhibitor DEVD-FMK, in words: more potent
MPP+, inhibitor concentration not stated
  effect on MPP+-induced DNA fragmentation: dose-dependently attenuated
MPP+, inhibitor concentration not stated, listed as N-benzyloxycarbonyl-Asp(OMe)-Ile-Pro-Asp(OMe)-FMK
  effect on MPP+-induced DNA fragmentation: inhibited
From IC50 values
  potency relative to z-DEVD-fmk at protecting against 6-OHDA-induced apoptotic cell death: at least 3 times
Inhibitor as low as 3 μM
  effect on 6-OHDA-induced DNA fragmentation: almost completely inhibits
read-out: IC50, 6-OHDA-induced DNA fragmentation (apoptotic cell death), 100 μM 6-OHDA 24 hr, inhibitor 1-50 μM
  IC50: 6 µM
